Patent US9090629B2, “Cytotoxic agents comprising new ansamitocin derivatives” (ImmunoGen, Inc., priority 2010, dated 2015)
Where two headings read alike, the source gives them in different places.

How the values were obtained:
[1] = system: COLO 205 cell line; assay: in-vitro activity of ansamitocin derivatives; assay type: cell-based, human; settings: 96 hour exposure; read-out: IC50 against COLO 205 cell line
Description: (§1) All reagents were purchased from the Aldrich Chemical Co., New Jersey, or other commercial sources. Maytansinol (11) was prepared as described previously (U.S. Pat. No. 6,333,410). Nuclear Magnetic Resonance (^1H NMR) spectra were acquired on a Bruker 400 MHz instrument and mass spectra were acquired on a Bruker Daltonics Esquire 3000 instrument using electrospray ionization. In vitro cytotoxicity assays are performed as previously described (see U.S. Pat. No. 7,276,497 and W. C. Widdison et al., J. Med. Chem., 2006, 49, 4392-4408).
(§2) The KB (ATCC CCl-17) cell line is of human epithelial origin. The SK-BR-3 (ATCC HTB-30) cell line was established from a human breast adenocarcinoma. The human colon tumor cell lines COLO 205 (ATCC CCL-222) and HT-29 (ATCC HTB 38), the human melanoma cell line A-375 (ATCC CRL 1619), the human Burkitts lymphoma cell line Ramos (ATCC CRL-1596) and the human myeloid leukemia cell line HL-60 (ATCC CCL-240) were all obtained from ATCC, Maryland. Cell lines were grown in Dulbecco's modified Eagles Medium (DMEM, Biowhittaker, Walkersville, Md.) with L-glutamine supplemented with 10% fetal bovine serum (Hyclone, Logan, Utah) and 50 μg/mL gentamycin sulfate (Life Technologies, Rockville, Md.). Cells were maintained at 36-37.5° C. in a humidified atmosphere that contained 6% CO2.

[2] = system: COLO 205-MDR cell line; assay: in-vitro activity of ansamitocin derivatives; assay type: cell-based, human; settings: 96 hour exposure; read-out: IC50 against COLO 205-MDR cell line
Description: as §1

[3] = system: KB cell line; assay: in-vitro activity of ansamitocin derivatives; assay type: cell-based, human
Text: The in vitro cytotoxicity of ansamitocin derivatives of the present invention can be measured by methods previously disclosed (U.S. Pat. No. 7,276,497 and Widdison et al., J. Med. Chem., 49; 4392, 2006, both expressly incorporated herein by reference). For example, cell lines such as the human breast carcinoma line SK-Br-3, or the human epidermoid carcinoma cell line KB, can be used for the assessment of cytotoxicity of these new ansamitocin derivatives. Cells to be evaluated are exposed to the compounds for 72 hours and the surviving fractions of cells measured in direct assays by known methods. IC50 values are calculated from the results of the assays.
as §1
The KB (ATCC CCl-17) cell line is of human epithelial origin. The SK-BR-3 (ATCC HTB-30) cell line was established from a human breast adenocarcinoma. […]

[4] = system: SK-Br-3 cells; assay: clonogenic in vitro cytotoxicity assay; assay type: cell-based, human; settings: for IC50: read-out: IC50 towards SK-Br-3 cells
Description: as §2
(§3) The cytotoxicity study was performed using a clonogenic assay. The test cell lines (KB and SK-Br-3) were plated into 6-well culture dishes at a constant number of 1000 cells per well. Cells were incubated with varying concentrations (0 to 3 nM) of the various ansamitocins or maytansine for 72 hours. The medium was then aspirated from the plates and replaced with fresh medium. Cultures were allowed to grow, and form colonies, for a total of 7-10 days after plating. The cultures were then fixed and stained with 0.2% crystal violet in 10% formalin/PBS and colonies were counted. Plating efficiency of non-treated cells (medium alone) was determined by dividing the number of colonies counted by the number of cells plated. Surviving fraction of cells exposed to the drugs was determined by dividing the number of colonies in wells that were exposed to the drug by the number of colonies in the control wells.

[5] = system: KB cells; settings: literature report, cited from earlier work
[6] = system: KB cells; assay: clonogenic in vitro cytotoxicity assay; assay type: cell-based, human; settings: 72 hours incubation
Description: as §2, §3

[7] = system: human nasopharyngeal carcinoma cells; settings: literature report; cited from earlier work
[8] = system: L1210 cells; settings: L1210 cells treated in vivo; untreated control 3.2 to 5.8%; cited from earlier work
[9] = system: human acute lymphoblastic leukemia line CEM; settings: literature report; cited from earlier work
[10] = system: L1210 mouse leukemia system; settings: literature report; cited from earlier work

COc1cc2cc(c1Cl)N(C)C(=O)C[C@H](OC(=O)CCCCC(=O)OCC[Si](C)(C)C)[C@]1(C)O[C@H]1[C@H](C)[C@@H]1C[C@@](O)(NC(=O)O1)[C@H](OC)/C=C/C=C(\C)C2 [14a]
IC50 [1]: 0.4 nM | IC50 [2]: 4.8 nM

COc1cc2cc(c1Cl)N(C)C(=O)CC(OC(=O)CCCCC(=O)O)C1(C)OC1C(C)C1CC(O)(NC(=O)O1)C(OC)C=CC=C(C)C2 (stereo not drawn) [14b, Hexanedioic Acid Ester of Maytansinol]
fold reduction in activity compared to the TMS-protected precursor 14a ([3]; KB cell line): 15 fold

CCCCC(=O)O[C@H]1CC(=O)N(C)c2cc(cc(OC)c2Cl)C/C(C)=C/C=C/[C@@H](OC)[C@@]2(O)C[C@H](OC(=O)N2)[C@@H](C)[C@@H]2O[C@@]12C [ansamitocin P4′]
fold more potent than maytansine towards SK-Br-3 cells ([4]; 72 hours incubation): 17 fold | IC50 ([4]; 72 hours incubation): 0.002 nM

CCC(=O)O[C@H]1CC(=O)N(C)c2cc(cc(OC)c2Cl)C/C(C)=C/C=C/[C@@H](OC)[C@@]2(O)C[C@H](OC(=O)N2)[C@@H](C)[C@@H]2O[C@@]12C [ansamitocin bearing a C3 propionyl ester]
fold less potent than maytansine (Kupchan et al.) ([5]; KB cells): about 34.4 fold | fold more potent than maytansine towards KB cells [6]: 1.3 fold

COc1cc2cc(c1Cl)N(C)C(=O)C[C@H](OC(=O)CCCCCSSC)[C@]1(C)O[C@H]1[C@H](C)[C@@H]1C[C@@](O)(NC(=O)O1)[C@H](OC)/C=C/C=C(\C)C2 [compound 54, 6-(methyldithio)hexanoic acid ester of maytansinol]
IC50 [1]: 0.31 nM

COc1cc2cc(c1Cl)N(C)C(=O)C[C@H](OC(=O)c1ccc(CSSC)cc1)[C@]1(C)O[C@H]1[C@H](C)[C@@H]1C[C@@](O)(NC(=O)O1)[C@H](OC)/C=C/C=C(\C)C2 [compound 59, 4-((methyldisulfanyl)methyl)benzoic acid ester of maytansinol]
IC50 [1]: 0.53 nM

COc1cc2cc(c1Cl)N(C)C(=O)C[C@H](OC(=O)CCCN(C)C)[C@]1(C)O[C@H]1[C@H](C)[C@@H]1C[C@@](O)(NC(=O)O1)[C@H](OC)/C=C/C=C(\C)C2 [compound 66, Dimethylamino Butyric Acid Ester of Maytansinol]
IC50 [1]: 11 to 12 nM | IC50 ([3]; 96 hour exposure, read-out: IC50 against the KB cell line): 11 to 12 nM | IC50 [2]: > 20 nM

COc1cc2cc(c1Cl)N(C)C(=O)C[C@H](OC(=O)[C@H](C)N(C)C(C)=O)[C@]1(C)O[C@H]1[C@H](C)[C@@H]1C[C@@](O)(NC(=O)O1)[C@H](OC)/C=C/C=C(\C)C2 [maytansine, N-acetyl-N-methyl-L-alanyl ester of maytansinol]
inhibition of in vitro growth of human nasopharyngeal carcinoma cells [7]: active inhibitor | cells accumulating in mitosis [8]: 67% | IC50 towards cancer cells (Kupchan et al.) [5]: 0.0000061 micrograms/mL | inhibitory concentration, CEM line [9]: ≥ 10^−7 mg/ml | inhibitory activity in vivo [10]: significant inhibitory activity | IC50 ([4]; Homo sapiens, SK-BR-3, 72 hours incubation): 0.034 nM
